Measurements taken from patent publication US5004756A, “Anti-cancer activity potentiator” (priority 1988, dated 1991).

Tests used:
[1] = Particle charge / formation of lipid emulsion; assay type: physicochemical
Text: To secure fine particles of 1 micron or below in size which can actually be administered as a lipid emulsion, the particles should have a charge within the range of +20 mV to +50 mV.

V79/S [2] = test: Colony formation (proliferation) inhibition, sensitive Chinese hamster cells (A-I Part 1); assay type: cell-based; details: Cricetulus griseus, 216 h; V79/S; 9 days; Table 1; read-out: IC50
Description: (§1) Sensitive cell line V79/S and ADM-resistant cell line V79/ADM of the Chinese hamster were used, and sensitive cell line PLC/S and cholchicin-resistant cell line PLC/Col, as human hepatoma cells.
(§2) The sensitive cell lines (400 cells) or the resistant cell lines (600 cells) were each incubated for 24 hours in 10 ml of Eagle's MEM medium containing 10% bovine serum. Each of the drugs indicated in Table 1 below was dissolved in ethanol, and 50 microliters of the resulting solution was added to the medium. The incubation was further carried out for 9 days. The concentration of the drug which inhibits 50% of the colony formation (proliferation) of the tumor cells was calculated.
(§3) V79/S and V79/ADM were tested by using all of the drugs described above, but PLC/S and PLC/Col were tested by using only the malate of formula (I), adriamycin and peplomycin.
(§4) The concentrations (micrograms/ml) required to inhibit 50% of the proliferation of the tumor cells, expressed by IC50, are shown in Table 1.

V79/ADM [3] = test: Colony formation (proliferation) inhibition, ADM-resistant Chinese hamster cells (A-I Part 1); assay type: cell-based; details: Cricetulus griseus, 216 h; V79/ADM; 9 days; Table 1; read-out: IC50
Description: as §1, §2, §3, §4

PLC/S [4] = test: Colony formation (proliferation) inhibition, sensitive human hepatoma cells (A-I Part 1); assay type: cell-based; details: Homo sapiens, 216 h; PLC/S; 9 days; Table 1; read-out: IC50
Description: as §1, §2, §3, §4

PLC/Col [5] = test: Colony formation (proliferation) inhibition, colchicin-resistant human hepatoma cells (A-I Part 1); assay type: cell-based; details: Homo sapiens, 216 h; PLC/Col; 9 days; Table 1; read-out: IC50
Description: as §1, §2, §3, §4

[6] = system: clinically isolated human cancer cells (lung adenocarcinoma, lung squamous cell carcinoma, osteosarcoma, ovarian carcinoma); test: Anti-tumor activity on clinically isolated human cancer cells, morphological changes (A-I Part 2); assay type: cell-based; details: 3 or 30 μg/ml (3 μg/ml for 3 examples, 30 μg/ml for 5)
B16 melanoma cells = test: Life prolongation of BDF1 mice with B16 melanoma (A-II Part 1); assay type: in vivo, mouse (male BDF1); details: 5 mg/kg i.p., three times every 4 days
Description: Three to eight male BDF1 mice having a body weight of 20±3 g were used, and B16 melanoma cells were selected as tumor cells. The melanoma cells were homogenized, and the homogenate was transplanted subcutaneously to the mice in an amount of 0.5 ml/mouse. After 7 days, the malate of formula (I) in accordance with this invention and an anti-cancer agent, neocartinostatin (NCS), were intraperitoneally administered either singly or in combination three times every 4 days in a dose of 5 mg/kg and 0.45 mg/kg for each time. The life prolonging rate of the mice was determined by the treated group/non-treated control group (T/C %).

V79/S [7] = test: Anti-cancer activity potentiating action, colony formation, V79/S parent cells (A-III); assay type: cell-based, Chinese hamster; details: Cricetulus griseus; V79/S; alone; Table 6; read-out: IC50, anti-cancer agent alone
Description: (§5) The anti-cancer activity potentiating action of the malate of formula (I) was examined using Chinese hamster cells (sensitive cell line V79/S and ADM-resistant cell line V79/ADM), human hepatoma cells (sensitive cell line PLC/S and colchicin-resistant cell line PLC/Col) and mouse leukemia cells (sensitive cell line L5178Y/S) and aclarubicin-resistant cell line L5178Y/ACR).
(§6) Of these tumor cells, the sensitive cells (400 cells) and the resistant cells (600 cells) were each incubated in 10 ml of Eagle's MEM medium containing 10% bovine serum for 24 hours, and then each of the test drugs indicated in Table 6 was added. Thereafter, the incubation was carried out for 9 days. The concentration (IC50 : micrograms/ml) of the test drug required to inhibit 50% of the colony formation (proliferation) of the tumor cells was calculated.
(§7) (A) Chinese hamster V79 cells
(§8) As anti-cancer agents, there were used adriamycin (ADM), aclarubicin (ACR), actinomycin D (ACD), 5-fluorouracil (5-FU), cytarabin (Ara-C), cisplatin (CDDP), methotrexate (MTX), mitomycin C (MMC), nimustine (ACNU), mitoxantrone, etoposide ([…]), vincristine (VCR), bleomycin (BLM) and peplomycin (PEP). For the sensitive cells, the anti-cancer agents were used in combination with 10 micrograms/ml of the malate of formula (I), and for the resistant cells, the anti-cancer agents were used in combination with the malate of formula (I) 3 micrograms/ml, 5 micrograms/ml, and 10 micrograms/ ml.

V79/ADM [8] = test: Anti-cancer activity potentiating action, colony formation, V79/ADM resistant cells (A-III); assay type: cell-based, Chinese hamster; details: Cricetulus griseus; V79/ADM; alone; Table 6; read-out: IC50, anti-cancer agent alone
Description: as §5, §6, §7, §8

PLC/S [9] = test: Anti-cancer activity potentiating action, colony formation, PLC/S parent cells (A-III); assay type: cell-based, human; details: Homo sapiens; PLC/S; alone; Table 7; read-out: IC50, anti-cancer agent alone
Description: as §5, §6
(§9) As anti-cancer agents, adriamycin (ADM) and peplomycin (PEP) were used in combination with the malate of formula (I) (5 micrograms/ml).

PLC/Col [10] = test: Anti-cancer activity potentiating action, colony formation, PLC/Col resistant cells (A-III); assay type: cell-based, human; details: Homo sapiens; PLC/Col; alone; Table 7; read-out: IC50, anti-cancer agent alone
Description: as §5, §6, §9

Meth-A = test: Tumor proliferation inhibiting activity, Meth-A (A-IV); assay type: in vivo, BALB/c rats; details: for Number of surviving animals: 16 days later; for T/C (tumor weight) / Tumor weight mean ± S.D.: day 16
Description: Female BALB/c rats (7 weeks old), 8 per group, were used. Tumor cells (Meth-A) induced by methyl cholanthrene were transplanted intraperitoneally to the rats, and then the malate of formula (I) was administered intraperitoneally to the rats. The proliferation inhibiting activity of the malate was examined by comparing the weight of the tumor cells with that of the tumor cells in the non-treated control group.
The dose of the malate of formula (I) was 1.25, 2.5, 5.0, and 10.0 mg/kg/day. Mitomycin C (MMC) was administered as another anti-cancer agent. The weight of the tumor cells was measured, and the proliferation inhibiting activity was determined.
The weight (g) of the tumor with respect to that of the tumor in the control group (T/C, %) after 16 days from the transplantation of the tumor cells, and the number of surviving rats after 16 days are shown in Table 8.

[11] = Acute toxicity test in mice, oral; assay type: in vivo, mouse; details: oral, 2,000 mg/kg
Description: Using mice, the malate of formula (I) obtained as above was tested for toxicity. […] Toxicity was neither noted.

[12] = 1.25 mg/kg/day i.p., days 1, 3, 5
[13] = 2.5 mg/kg/day i.p., days 1, 3, 5

## COc1ccc(CNCCN(CC=C(C)CCC=C(C)CCC=C(C)CCC=C(C)CCC=C(C)CCC=C(C)CCC=C(C)CCC=C(C)CCC=C(C)C)Cc2ccc(OC)c(OC)c2)cc1OC [compound (II), N-solanesyl-N,N'-bis(3,4-dimethoxybenzyl)ethylenediamine]
[1]
  Formation of a lipid emulsion: cannot be formed into a lipid emulsion
[1]; lipid emulsion particles
  Particle charge within +20 mV to +50 mV / aggregation: particle aggregation occurs

## COc1ccc(CNCCN(CC=C(C)CCC=C(C)CCC=C(C)CCC=C(C)CCC=C(C)CCC=C(C)CCC=C(C)CCC=C(C)CCC=C(C)C)Cc2ccc(OC)c(OC)c2)cc1OC [Compound (I), N-solanesyl-N,N'-bis(3,4-dimethoxybenzyl)ethylenediamine malate]
V79/S [2]
  IC50: 11.5 µg/mL
V79/ADM [3]
  IC50: 3 µg/mL
PLC/S [4]
  IC50: 6.8 µg/mL
PLC/Col [5]
  IC50: 1.7 µg/mL
[6]
  Efficacy ratio (rated significant by Fisher's test): 5/8
B16 melanoma cells
  T/C (life prolonging rate at M.S.T.): 165%
V79/S [7]
  IC50: 11.5 µg/mL
V79/ADM [8]
  IC50: 3 µg/mL
PLC/S [9]
  IC50: 6.8 µg/mL
PLC/Col [10]
  IC50: 1.7 µg/mL
Meth-A; [12]
  Number of surviving animals: 8/8
  T/C (tumor weight): 75%
  Tumor weight mean ± S.D.: 1.255 ± 0.533 g
Meth-A; [13]
  Number of surviving animals: 8/8
  T/C (tumor weight): 79%
  Tumor weight mean ± S.D.: 1.327 ± 0.350 g
Meth-A; 5.0 mg/kg/day i.p., day 1
  Number of surviving animals: 8/8
  T/C (tumor weight): 83%
  Tumor weight mean ± S.D.: 1.389 ± 0.644 g
Meth-A; 10.0 mg/kg/day i.p., day 1
  Number of surviving animals: 8/8
  T/C (tumor weight): 65%
  Tumor weight mean ± S.D.: 1.091 ± 0.659 g
[11]
  Acute toxicity, abnormality in mice: no abnormality was found
